The subject of data set [1] is Recombinant NE protein of hepatitis E virus. Put plainly: Sero-conversion after recombinant NE protein of hepatitis E virus mixed with BB. Conditions: 1 μg NE protein with 5 μM of BB, intramuscularly. Format: in vivo.
A short description of data set [2]: Water solubility (statement). Format: physicochemical.
In the next data set the test system is rHBsAg antigen. Put plainly: Anti-HBsAg antibody titers after immunization of rats with rHBsAg plus BB adjuvant. Format: in vivo. The conditions noted are these: Wistar rats, rHBsAg 10 μg intramuscular day 0, serum every 14 days; BB-50 uM, BB-5 uM.
Data set [3] concerns cancer cells (Mia-paca 2). The data set can be described thus: Interferon gamma ELISPOT on splenocytes after immunization with cancer cells with/without BB. Format: in vivo, mice.
Data set [4] deals with rDNA coding Rabies antigen. The arrangement: species or system Swiss albino mice. Conditions: mouse, in vivo.
Data set [5] has as its system inactivated rabies virus (Rabipur). Further details: species or system mice. Conditions: mouse, in vivo.

On to `CC(=O)C1=CC[C@H]2[C@@H]3CC=C4C[C@@H](O)CC[C@]4(C)[C@H]3CC[C@]12C` [BB, 3β-hydroxy-5,16-pregnadien-20-one], for which, in data set [1] (after 2nd injection given 2 weeks later), the sero-conversion stood at 100%. Also, in data set [1] (day 14 after 1st injection), the sero-conversion was 60%. For the same compound, in data set [2], the water solubility entry is recorded as “water insoluble”. For the same compound, in the data set on rHBsAg antigen, the “ranking as adjuvant (anti-HBsAg antibodies)” value was “lead adjuvants”. Besides, the “effect of the generated immune response on tumor size” value in data set [3] (BB with cancer cells (Mia-paca 2)) is given as “reduction of tumor size”. The “IFN-g ELISPOT response relative to the mycobacterium adjuvanted group” value in data set [3] (doses day 1 and day 21, splenocytes day 28) is on record as “more then three times greater response”. For the same compound, in data set [4], the “day on which antibody titers are protective, after 1st dose of vaccine” value came to 28 days and the “time the titers remained protective” value is recorded as “about 100 days”. Also, in data set [5], the “antibody response compared with rabies vaccine without adjuvant” value was “faster and stronger response”; the “day on which titers were protective” value was 14 days.

The values above are taken from US8647643B2, “Farnesoid-X-receptor antagonist as a vaccine adjuvant” (priority 2008, dated 2014).
